The text below walks through data of patent US20210292340A1, “CELL NECROSIS INHIBITOR, PREPARATION METHOD THEREFOR AND USE THEREOF” (SHANGHAI INSTITUTE OF ORGANIC CHEMISTRY, CHINESE ACADEMY OF …, priority 2018, published 2021).

One data set has as its system Jurkat (FADD−/−) cells. Nature of the data set: Inhibition of TNF-induced programmed Jurkat (FADD−/−) cell necrosis (Cell Titer-Glo). Type of data set: cell-based, human. As to conditions: Homo sapiens, Jurkat, 20 h, read-out: Cellular IC50 (M) Jurkat (FADD−/−). The method, boiled down:
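FADD-knockout Jurkat cells (5×10^5/mL) preincubated with compound, then given TNF (final 10 ng/mL) for 20 h at 37 °C. ATP measured by Cell Titer-Glo luminescence, normalised to untreated DMSO wells as 100% viability; IC50 from duplicate wells.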

A further data set addresses T1, human RIP1 (Homo sapiens, UniProt Q13546).
T1 construct: made in house; host or cells: Sf-9 insect cells
T1 sequence (Q13546 1-671): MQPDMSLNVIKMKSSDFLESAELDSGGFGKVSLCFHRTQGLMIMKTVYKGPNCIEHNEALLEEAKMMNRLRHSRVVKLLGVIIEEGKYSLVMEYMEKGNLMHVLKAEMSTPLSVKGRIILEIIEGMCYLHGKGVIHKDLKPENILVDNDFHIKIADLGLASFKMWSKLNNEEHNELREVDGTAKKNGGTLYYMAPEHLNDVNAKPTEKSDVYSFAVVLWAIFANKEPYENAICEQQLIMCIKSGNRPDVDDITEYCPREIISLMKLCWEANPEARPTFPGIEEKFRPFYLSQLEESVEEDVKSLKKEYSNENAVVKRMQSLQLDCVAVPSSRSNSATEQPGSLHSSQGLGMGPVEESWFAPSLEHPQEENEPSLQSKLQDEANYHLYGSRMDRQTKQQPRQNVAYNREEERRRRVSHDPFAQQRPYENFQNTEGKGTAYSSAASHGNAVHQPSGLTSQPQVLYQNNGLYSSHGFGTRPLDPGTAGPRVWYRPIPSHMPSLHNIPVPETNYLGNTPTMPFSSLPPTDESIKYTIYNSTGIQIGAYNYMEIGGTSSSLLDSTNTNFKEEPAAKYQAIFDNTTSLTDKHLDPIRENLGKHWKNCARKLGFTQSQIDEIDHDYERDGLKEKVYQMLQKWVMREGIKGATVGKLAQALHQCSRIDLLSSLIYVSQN
Nature of the data set: Inhibition of ADP-Glo RIP1 kinase activity. Type of data set: biochemical. As for the experimental part:
The human RIP1 gene was transduced into Sf-9 insect cells, and the RIP1 protein was purified by Ni+ affinity chromatography and then by S-200 molecular sieve to remove the protein multimers. The obtained RIP1 protein was stored at −70° C., and the activity of the RIP1 protein in catalyzing autophosphorylation was detected by the ADP-Glo™ Kinase Activity Assay Kit (Promega) and the inhibitory activity of the drug against the RIP1 kinase was determined.
100 nL of the compound was transferred to a 384-well assay plate. Two replicate wells were set for each concentration of each drug.
The RIP1 enzyme solution and ATP solution were formulated in an assay buffer (containing 50 mM HEPES pH 7.5, 30 mM MgCl2, 50 mM NaCl, 1 mM DTT, 0.02% CHAPS, and 0.5 mg/ml BSA). Then, 5 μL of the RIP1 enzyme solution (final concentration 50 nM) was added to the assay plate and incubated at room temperature for 1 h. 5 μL of the ATP solution (final concentration 10 μM) was added to the assay plate, and incubate at room temperature for 4 h. Then 5 μL of ADP-Glo reagent was added to the assay plate, and incubated at room temperature for 60 min. 5 μL of a kinase assay solution was added to the assay plate, and incubated at room temperature for 30 min. After readout on Envision, the inhibition rate in each well was calculated from the full-activity well and the background well, and the Ki of the compound was calculated by GraphPad Prism 7 software (using the Morrision equation to fit the curve and calculate the Ki).
(In general: ADP-Glo first removes unused ATP, then detects ADP through luciferase.)

In a further data set the test system is TNF-α induced shock. The data set can be described thus: TNF-α induced shock test in mice. Format: in vivo, C57BL/6 mice. To be noted: 10, 20 and 30 mg/kg, given 15 min before TNF-α; body temperature 0-6 h. Here is the method:
C57BL/6 mice were specially sterilized, and the animals are randomly grouped according to their body weight. 0.15 mg/mL TNF-α was prepared. Each mouse was injected with 200 μL TNF-alpha (30 μg per mouse) through the tail vein. 15 min before TNF-α induction, the drug was administered according to the body weight. At 0 h, 1 h, 2 h, 4 h, and 6 h, the body temperature of the mouse was detected by a small animal thermometer and recorded, and the state of the animal was observed during the test. After 6 h, the mice were euthanized with CO2. The experimental data was plotted by Graph Pad Prism 7, and expressed as mean±standard error (Mean±SEM). The area under the clinical scoring curve was analyzed by one-way ANOVA. p<0.05 is considered to have significant differences as compared to the control group.

A short description of data set [1]: Plasma concentration in mice after a single oral administration. Format: in vivo. As to conditions: single oral dose 10 mg/kg, 0.25-24 h. As for the experimental part:
An oral solution containing Compound RIP1-034 of the present application was freshly prepared with an aqueous solution containing 0.5% MC/0.25% Tween 80 on the day of administration. All animals were fasted overnight before administration, and were allowed to have free food intake 4 hours after administration. Each group included three mice, and each mouse was orally administered a single dose of 10 mg/kg on the day of the experiment. About 30 μL of whole blood was collected from the dorsal vein of the foot at 0.25, 0.5, 1, 2, 4, 6, 8, and 24 hours after administration, transferred to an anticoagulation tube containing heparin sodium and mixed thoroughly by inverting for several times. The collected blood sample was centrifuged at 4° C. and 4000 g for 5 min to collect plasma, and the plasma sample was dispensed into clean polyethylene microcentrifuge tubes, and then stored in a freezer at −75±15° C. until analysis. The actual administration volume was calculated based on the animal's body weight. All samples were analyzed by LC-MS/MS, and the concentration of the drug to be tested in the samples was determined by the standard curve method. The average plasma concentration in a group of three mice at each measurement time point after a single oral administration is shown in FIG. 3.

Like-named read-outs stand apart in the source and are kept apart here.

Regarding `CN1C(=O)[C@@H](NC(=O)c2nnc(Cc3ccccc3)[nH]2)COc2cc3[nH]nc(Cl)c3cc21` [RIP1-034], the IC50 with Jurkat (FADD−/−) cells (TNF 10 ng/mL, intracellular ATP level) was found to be 8.9e-10 M. Besides, affinity on human RIP1 was put at a Ki of 6.35 nM. Further, the “decrease in body temperature due to systemic inflammatory response caused by TNF-α” value in the data set with TNF-α induced shock was “effectively inhibits the decrease in body temperature”. Further, the “plasma concentration after oral administration” value in data set [1] is “can reach a desirable plasma concentration”.

For the compound `CN1C(=O)[C@@H](NC(=O)c2nnc(Cc3ccccc3)o2)COc2cc3[nH]nnc3cc21` [RIP1-153], the IC50 with Jurkat (FADD−/−) cells is 1.52e-09 M. The Ki (as a rule, a dissociation constant, usually derived from enzyme kinetics or from competition with a known ligand) at human RIP1 stood at 12.8 nM.
